{"source": "patent US20090197891A1", "about": "“Use of (4-Alkylpiperazinyl)(phenyl) methanones in the treatment of alzheimer's disease” (priority 2004, published 2009)", "assay_type_in_all_cases": "cell-based, rat", "key": {"PC12 cells [1]": {"tested_on": "PC12 cells", "assay": "Aβ1-42-induced neurotoxicity, cell viability by MTT assay", "description": "(§1) PC12 cells (rat pheochromocytoma) (ATCC, Manassas, Va.) were cultured in RPMI 1640 without glutamine medium containing 10% of bovine serum and 5% of horse serum at 37° and 5% CO2. These cells respond reversibly to NGF by induction of the neuronal phenotype. PC12 cells were incubated for 24 hours in 96-well plates (5.10^4 cells per well) with increasing concentrations (1, 10 and 100 μM) of procaine, procainamide, lidocaine, tetracaine, SP015, SP016, SP017 or SP008. Aβ1-42 was incubated overnight at 4° C. and then added to the cells at 0.1, 1 or 10 μM final concentrations for a 24 hours time period.\n(§2) The cellular toxicity of Aβ was assessed using the 3-(4,5-dimethylthiazol-2-yl)-2,5-diphenyl tetrazolium bromide (MTT) assay (Trevigen, Gaithersburg, Md.) as previously described (Lecanu et al. (2004) Steroids, 69: 1-16). Briefly, 10 μl of the MTT solution were added to the cells cultured in 100 μl of medium. After an incubation period of 4 hours in the same conditions as above, 100 μl of detergent were added and cells incubated overnight at 37° C. The blue coloration was quantified at 600 nm and 690 nm using the Victor spectrophotometer (EGG-Wallac, Gaithersburg, Md.). The effect of Aβ1-42 was expressed as (DO600-DO690). To compare the protective effect of the compounds tested, the decrease of MTT signal observed with Aβ1-42 was considered to be the 100% inhibition of the NADPH diaphorase activity and the effect of the compounds tested is shown as an increase or decrease of this percentage."}, "PC12 cells [2]": {"tested_on": "PC12 cells", "assay": "Glutamate-induced excitotoxicity, cell viability by MTT assay", "settings": "for prevention of glutamate-induced neurotoxicity: 24 h pre-treatment with compound 0.3-30 μM", "description": "To study the role played by the NMDA receptor in the Aβ1-42-induced neurotoxicity, increasing concentrations of (+)-MK801 were added to the cell media immediately before Aβ1-42. Cell viability was assessed 4 hours later using the MTT assay. To assess the effect of procaine and SP008 on the glutamate-induced excitotoxicity, PC12 cells were pre-treated with procaine or SP008 at 0.3, 1, 3, 10 and 30 μM for 24 hours and then submitted to glutamate exposure for another 24 hour time period. Cell viability was subsequently assessed using the MTT assay. To assess the role of sodium channels in A8142-induced neurotoxicity, PC12 cells were incubated for 4 hours with the sodium-channel blocker TTX at 3, 30 or 300 μM followed by addition of Aβ1-42. Cell viability was assessed by MTT 24 hours later. The involvement of the oxidative stress in the toxicity of Aβ1-42 was assessed by incubating the PC12 in the presence of 10, 100 or 500 μM PBN for 24 hours. Aβ1-42 was then added to the incubation media. Cell viability was assessed by MTT 24 hours later.\nas §2"}, "PC12 cells [3]": {"tested_on": "PC12 cells", "assay": "Aβ1-42-induced ATP depletion, ATPLite-M assay", "settings": "for protective effect on mitochondrial function / ATP content: compound at 1 μM", "description": "as §1\nATP concentrations were measured using the ATPLite-M™ assay (Packard BioSciences Co.), as previously described (Lecanu et al., cited above). In brief, cells were cultured on black 96-well ViewPlate™ and the ATP concentrations measured on a TopCount NXT™ counter (Packard BioSciences Co.) according to the manufacturer recommendations. The effect of Aβ1-42 was expressed in arbitrary units. To compare the potential protective effect of the compounds tested on ATP recovery, the decrease of ATP concentration induced by Aβ1-42 was considered to be 100% reduction and the effects of the compounds tested are shown as changes of this percentage."}}, "note": "Entries after “also recorded” stand apart in the source; their conditions may differ."}
{"smiles": "CCN1CCN(C(=O)c2ccc(OC)c(OC)c2OC)CC1", "note": "[SP008, 4-Ethyl-1-(2,3,4-trimethoxybenzoyl)-piperazine]", "values": [{"measurement": "neuroprotection against Aβ1-42 (PC12 viability), general statement", "setting": "PC12 cells [1]", "value": "significant neuroprotective properties; also recorded: strong neuroprotective properties"}, {"measurement": "protective effect against Aβ1-42-induced cytotoxicity (MTT)", "setting": "PC12 cells [1]; 0.1 μM Aβ1-42, compound at 10 μM, p<0.01", "value": "exerted a protective effect"}, {"measurement": "reduction of Aβ1-42-induced NADPH diaphorase inhibition (MTT)", "setting": "PC12 cells [1]; 0.1 μM Aβ1-42, compound at 1 and 100 μM", "value": "did not reduce"}, {"measurement": "neuroprotective effects against Aβ1-42 (MTT)", "setting": "PC12 cells [1]; 1 μM Aβ1-42, compound at 1 (p<0.05), 10 (p<0.01) and 100 μM (p<0.001)", "value": "demonstrated neuroprotective effects"}, {"measurement": "neuroprotective properties against Aβ1-42-induced toxicity (MTT)", "setting": "PC12 cells [1]; 10 μM Aβ1-42, compound at 10 (p<0.05) and 100 μM (p<0.01)", "value": "displayed neuroprotective properties"}, {"measurement": "potency against Aβ1-42 compared with procaine", "setting": "PC12 cells [1]; two highest concentrations of Aβ1-42", "value": "more potent than procaine"}, {"measurement": "inhibition of the neurotoxic effect of glutamate, general statement", "setting": "PC12 cells [2]", "value": "inhibited the neurotoxic effect"}, {"measurement": "lowest concentration reducing glutamate-induced neurotoxicity", "setting": "PC12 cells [2]", "value": 0.3, "unit": "µM"}, {"measurement": "prevention of glutamate-induced neurotoxicity", "setting": "PC12 cells [2]; glutamate 100 μM", "value": "biphasic"}, {"measurement": "neuroprotective effect compared with procaine at the same concentration", "setting": "PC12 cells [2]; glutamate 100 μM, p<0.001", "value": "more important than the procaine effect"}, {"measurement": "concentration of maximum (peak) protective effect", "setting": "PC12 cells [2]; glutamate 100 μM, p<0.001 compared to control", "value": 3, "unit": "µM"}, {"measurement": "preservation of intracellular ATP against Aβ1-42, general statement", "setting": "PC12 cells [3]", "value": "preserved Aβ1-42-induced ATP depletion"}, {"measurement": "preservation of Aβ1-42-depleted ATP stock", "setting": "PC12 cells [3]; 0.1 μM Aβ1-42, compound at 10 μM", "value": "did not preserve"}, {"measurement": "prevention of ATP decrease", "setting": "PC12 cells [3]; 0.1 μM Aβ1-42, compound at 1 and 100 μM, p<0.05", "value": "prevented the ATP decrease"}, {"measurement": "ATP preservation", "setting": "PC12 cells [3]; 1 μM Aβ1-42, compound 1-100 μM", "value": "dose-dependent ATP preservation"}, {"measurement": "restoration of ATP levels", "setting": "PC12 cells [3]; 10 μM Aβ1-42, only 100 μM compound statistically significant (p<0.01)", "value": "dose-dependent restoration of ATP levels"}, {"measurement": "prevention of Aβ1-42-induced intracellular ATP stock depletion", "setting": "PC12 cells [3]; even against 10 μM Aβ1-42", "value": "prevent the Aβ1-42-induced intracellular ATP stock depletion"}]}
{"smiles": "CC(=O)OC1CC(O)C2(C)C(OC(C)=O)C3C(CC(C)C12)OC(=O)C3CN1CCN(C(=O)c2ccccc2)CC1", "note": "(stereo not drawn) [SP015, Acetic acid 7-acetoxy-3-(4-benzoyl-piperazin-1-yl-methyl)-5-hydroxy-4a,8-dimethyl-2-oxo-dodecahydro-azuleno[6,5-b]furan-4-yl ester]", "values": [{"measurement": "neuroprotection against Aβ1-42 (PC12 viability), general statement", "setting": "PC12 cells [1]", "value": "neuroprotection"}, {"measurement": "neuroprotective effect on PC12 viability after Aβ1-42 exposure", "setting": "PC12 cells [1]; compound at 1 and 10 μM, only against 10 μM Aβ1-42", "value": "displayed a neuroprotective effect"}, {"measurement": "preservation of intracellular ATP against Aβ1-42, general statement", "setting": "PC12 cells [3]", "value": "preservation of the ATP cellular stocks"}, {"measurement": "protective effect on mitochondrial function / ATP content", "setting": "PC12 cells [3]; highest Aβ1-42 concentration examined", "value": "important protection"}]}
{"smiles": "CC(=O)OC1CC(OC(C)=O)C2(C)C(O)C3C(CC(C)C12)OC(=O)C3CN1CCN(C(=O)c2ccccc2)CC1", "note": "(stereo not drawn) [SP016, acetic acid 5-acetoxy-3-(4-benzoylpiperazin-1-yl-methyl)-4-hydroxy-4a,8-dimethyl-2-oxo-dodecahydro-azuleno[6,5-b]furan-7-yl ester]", "values": [{"measurement": "neuroprotection against Aβ1-42 (PC12 viability), general statement", "setting": "PC12 cells [1]", "value": "no effect was observed"}, {"measurement": "preservation of intracellular ATP against Aβ1-42, general statement", "setting": "PC12 cells [3]", "value": "preservation of the ATP cellular stocks"}, {"measurement": "protective effect on mitochondrial function / ATP content", "setting": "PC12 cells [3]; low Aβ1-42 concentrations (0.1 μM)", "value": "significant effect"}]}
{"smiles": "CC1=CCC23OC2(C)CCC2C(CN4CCN(C(=O)c5ccccc5)CC4)C(=O)OC2C13", "note": "(stereo not drawn) [SP017, 3-(4-benzoyl-piperazin-1-yl-methyl)-6,6a-epoxy-6,9-dimethyl-3a,4,5,6,6a,7,9a,9b-octahydro-3H-azuleno[4,5-b]furan-2-one]", "values": [{"measurement": "efficacy range, inhibition of Aβ1-42 toxicity (mitochondrial diaphorase activity)", "setting": "PC12 cells [1]", "value": "30-70%"}, {"measurement": "neuroprotection against Aβ1-42 (PC12 viability), general statement", "setting": "PC12 cells [1]", "value": "highest protective effect; also recorded: neuroprotection"}, {"measurement": "preservation of intracellular ATP against Aβ1-42, general statement", "setting": "PC12 cells [3]", "value": "preservation of the ATP cellular stocks"}]}
{"smiles": "CCN(CC)CCOC(=O)c1ccc(N)cc1", "note": "[procaine, reference compound]", "values": [{"measurement": "inhibition of the neurotoxic effect of glutamate, general statement", "setting": "PC12 cells [2]", "value": "inhibited the neurotoxic effect"}, {"measurement": "prevention of glutamate-induced neurotoxicity", "setting": "PC12 cells [2]; glutamate 100 μM", "value": "prevented the glutamate-induced neurotoxicity in a biphasic manner"}, {"measurement": "preservation of intracellular ATP against Aβ1-42, general statement", "setting": "PC12 cells [3]", "value": "restore partially"}]}
